Laboratory results: patent US8394968B2, “Hepatitis C virus inhibitors” (Bristol-Myers Squibb Company, priority 2009, dated 2013)
Where two headings read alike, the source gives them in different places.

Test system: HCV 1b genotype
Test: HCV Replicon assay (HCV-neo replicon cells, wild-type; luciferase reporter variants also used)
Assay type: cell-based
Settings: Hepatitis C virus, HCV 1b genotype replicon
Protocol: An HCV Replicon assay was utilized in the present disclosure, and was prepared, conducted and validated as described in commonly owned PCT/US2006/022197 and in O'Boyle et. al. Antimicrob Agents Chemother. 2005 April; 49(4):1346-53. Assay methods incorporating luciferase reporters have also been used as described (Apath.com).
HCV-neo replicon cells and replicon cells containing mutations in the NS5A region were used to test the currently described family of compounds. The compounds were determined to have more than 10-fold less inhibitory activity on cells containing mutations than wild-type cells. Thus, the compounds of the present disclosure can be effective in inhibiting the function of the HCV NS5A protein and are understood to be as effective in combinations as previously described in application PCT/US2006/022197 and commonly owned WO/04014852. Further, the compounds of the present disclosure can be effective against the HCV 1b genotype. It should also be understood that the compounds of the present disclosure can inhibit multiple genotypes of HCV. […] In one embodiment, compounds of the present disclosure are inhibitory versus 1a, 1b, 2a, 2b, 3a, 4a, and 5a genotypes.

Row | SMILES | EC50 (read-out: EC50) | EC50 (class symbol, read-out: EC50 Range)
1 | COC(=O)NC(C(=O)N1CCC[C@H]1c1nc2ccc(-c3ccc(-c4ccc5c(ccc6[nH]c([C@@H]7CCCN7C(=O)C(NC(=O)OC)c7ccccc7)nc65)c4)cc3)cc2[nH]1)c1ccccc1 (stereo in doubt) [J.27c, methyl ((1R)-2-((2S)-2-(7-(4-(2-((2S)-1-((2R)-2-((methoxycarbonyl)amino)-2-phenylacetyl)-2-pyrrolidinyl)-1H-benzimidazol-5-yl)phenyl)-1H-naphtho[1,2-d]imidazol-2-yl)-1-pyrrolidinyl)-2-oxo-1-phenylethyl)carbamate] | 0.003 nM | 
2 | COC(=O)NC(C(=O)N1CCC[C@H]1c1nc2ccc(C#Cc3cccc(-c4[nH]cnc4[C@@H]4CCCN4C(=O)[C@@H](NC(=O)OC)C(C)C)c3)cc2[nH]1)C(C)C (stereo in doubt) [J.28l, methyl ((1S)-1-(((2S)-2-(5-(3-((2-((2S)-1-((2R)-2-((methoxycarbonyl)amino)-3-methylbutanoyl)-2-pyrrolidinyl)-1H-benzimidazol-5-yl)ethynyl)phenyl)-1H-imidazol-4-yl)-1-pyrrolidinyl)carbonyl)-2-methylpropyl)carbamate] | 7 nM | 4.57 to 99 nM
